Measurements: PMC7472354, “Enhanced Antimicrobial Activity of N-Terminal Derivatives of a Novel Brevinin-1 Peptide from The Skin Secretion of Odorrana schmackeri” (Toxins, 2020)
Converted amounts (≈) assume the structure as drawn. Like-named read-outs stand apart in the source and are kept apart here. Where a SMILES comes first, the peptide text is derived from it.

Key:
[1] = system: Candida albicans (NCPF 1467); format: cell-based; conditions: for MBC: NCPF 1467, 18 h; for MIC: NCPF 1467, 24 h
Method: (§1) The minimal inhibitory concentrations (MICs) and minimum bactericidal concentrations (MBCs) were evaluated to determine the antimicrobial activity of synthetic peptides. The microorganisms employed in the study are two kinds of Gram-negative bacteria, Escherichia coli (NCTC 10418) and Pseudomonas aeruginosa (ATCC 27853), three kinds of Gram-positive bacteria, Staphylococcus aureus (NCTC 10788), Methicillin-resistant Staphylococcus aureus (MRSA, ATCC 12493) and Enterococcus faecalis (NCTC 12697) and a yeast, Candida albicans (NCPF 1467), as indicated previously. […] The sterilised broth medium was used as the positive control and the microorganism cultured in the medium only was treated as the negative control. […] The MBC results were defined as the lowest bactericidal concentrations of peptide. The antimicrobial activity of peptides was tested by monitoring the absorbance at 550 nm using an ELISA plate reader (Biolise BioTek EL808, Winooski, VT, USA).

[2] = system: Enterococcus faecalis (NCTC 12697); format: cell-based; conditions: for MBC: NCTC 12697, 18 h; for MIC: NCTC 12697, 24 h
Method: as §1

[3] = system: Escherichia coli (NCTC 10418); format: cell-based; conditions: for MBC: NCTC 10418, 18 h; for MIC: NCTC 10418, 24 h
Method: as §1

[4] = system: Methicillin-resistant Staphylococcus aureus (MRSA, ATCC 12493); format: cell-based; conditions: for MBC: ATCC 12493, 18 h; for MIC: ATCC 12493, 24 h
Method: as §1

[5] = system: Staphylococcus aureus (NCTC 10788); format: cell-based; conditions: for MBC: NCTC 10788, 18 h; for MIC: NCTC 10788, 24 h
Method: as §1

[6] = system: E. faecalis (NCTC 12697) biofilm; format: cell-based, Enterococcus faecalis; conditions: for MBIC50 / MBIC90: NCTC 12697, 24 h
Method: (§2) The anti-biofilm effects of all synthetic peptides were evaluated, which was described in our previous study. The organisms, including S. aureus (NCTC 10788), E. coli (NCTC 10418), MRSA (ATCC 12493), E. faecalis (NCTC 12697) and P. aeruginosa (ATCC 27853), were investigated in this study. Gram-positive bacteria were cultured in the TSB broth and Gram-negative bacteria were cultured in the LB broth. The anti-biofilm effects were determined based on the MBIC and MBEC of all the peptides. For the determination of MBIC, 5 × 10^5 CFU/mL bacterial cultures were incubated with the peptides concentrations (ranging from 1 µM to 512 µM) for 24 h. The sterilised medium and bacterial suspension without any treatment were used as the negative controls and positive controls, respectively. After incubation, wells were rinsed, fixed, stained, washed and dissolved with phosphate buffer saline (PBS), methanol (90%, v/v), crystal violet (0.1%, w/v), sterile deionised water and acetic acid (30%, v/v), respectively. The absorbance of dissolved stain was measured at a 595 nm using a Synergy HT plate reader (Biotech, Minneapolis, MN, USA).
(§3) For the MBEC assay, the peptide concentrations were prepared as above. The bacteria were cultured in the 96 well plate for 24–48 h, which allowed the formation of mature biofilm in the plate. Then, the bacterial culture was removed from the plate. The biofilm was further washed to remove the planktonic bacteria using PBS. Then, the fresh broth that contained different peptide concentrations was added in the plate for incubation of 24 h at 37 °C. After incubation, the plate was stained by crystal violet as mentioned above. The definition of MBIC can be given when compared to the negative control group (≥90%, MBIC90; ≥50%, MBIC50). The definition of the MBEC can be given when compared to the negative control group (≥90%, MBEC90; ≥50%, MBEC50).

[7] = system: E. coli (NCTC 10418) biofilm; format: cell-based, Escherichia coli; conditions: for MBIC50 / MBIC90: NCTC 10418, 24 h
Method: as §2, §3

MRSA = format: cell-based, Staphylococcus aureus; conditions: 24 h
Method: (§4) The minimal inhibitory concentrations (MICs) and minimum bactericidal concentrations (MBCs) were evaluated to determine the antimicrobial activity of synthetic peptides. The microorganisms employed in the study are two kinds of Gram-negative bacteria, Escherichia coli (NCTC 10418) and Pseudomonas aeruginosa (ATCC 27853), three kinds of Gram-positive bacteria, Staphylococcus aureus (NCTC 10788), Methicillin-resistant Staphylococcus aureus (MRSA, ATCC 12493) and Enterococcus faecalis (NCTC 12697) and a yeast, Candida albicans (NCPF 1467), as indicated previously. For antimicrobial assays, 5 × 10^5 CFU/mL of bacterial suspensions were incubated with the concentrations of the peptides (ranging from 1 µM to 512 µM) for 24 h at 37 °C. The sterilised broth medium was used as the positive control and the microorganism cultured in the medium only was treated as the negative control. […] The MBC results were defined as the lowest bactericidal concentrations of peptide. The antimicrobial activity of peptides was tested by monitoring the absorbance at 550 nm using an ELISA plate reader (Biolise BioTek EL808, Winooski, VT, USA).
(§5) The activity of peptides in the different environmental conditions including different concentrations of NaCl (50, 100 and 150 mM) and MgCl2 (0.5, 1 and 2 mM), pH (6, 7 and 8), temperature (50 °C, 75 °C and 100 °C) and 10% fetal bovine serum (FBS) solution, was evaluated using the broth microdilution assay as described in the antimicrobial activity assay. For the stability test of peptides in the presence of salt, pH and serum, these conditions were adjusted in the fresh medium that was further used to dilute the bacteria suspension. The peptides were also dissolved in such broth and mixed with the bacteria suspension in the 96 well plate. For the thermal stability test, the peptides were dissolved in the water and incubated at different temperature for 15 min before dosing in the plate. The sterilised broth with corresponding conditions was used as the positive controls, and the bacteria suspension without any treatment was used as the negative controls.

S. aureus = format: cell-based, Staphylococcus aureus; conditions: 24 h
Method: as §4, §5

E. faecalis = format: cell-based, Enterococcus faecalis; conditions: 24 h
Method: as §4, §5

C. albicans = format: cell-based, Candida albicans; conditions: 24 h
Method: as §4, §5

`CC(C)C[C@H](NC(=O)[C@H](C)NC(=O)[C@H](Cc1c[nH]c2ccccc12)NC(=O)[C@H](CCCCN)NC(=O)[C@H](CC(C)C)NC(=O)[C@@H](N)Cc1ccccc1)C(=O)N[C@@H](CCCCN)C(=O)N[C@H](C(=O)N[C@@H](C)C(=O)N[C@@H](C)C(=O)N[C@@H](CCCCN)C(N)=O)C(C)C` [OSd] (H-FLKWALKVAAK-NH2) was tested, and the MBC [1] was 32 µM (≈ 40.8 µg/mL), the MIC [1] was 16 µM (≈ 20.4 µg/mL) and the MBC [2] was 64 µM (≈ 81.5 µg/mL). It also gave an MIC [2] of 32 µM (≈ 40.8 µg/mL), an MBC [3] of 32 µM (≈ 40.8 µg/mL) and an MIC [3] of 32 µM (≈ 40.8 µg/mL). It also gave an MBC [4] of 32 µM (≈ 40.8 µg/mL), an MIC [4] of 32 µM (≈ 40.8 µg/mL) and an MBC [5] of 32 µM (≈ 40.8 µg/mL). The MIC [5] was 16 µM (≈ 20.4 µg/mL), the MBEC50 [6] was 128 µM and the MBEC90 [6] was 256 µM. The MBIC50 [6] was 64 µM, the MBIC90 [6] was 128 µM and the MBEC50 [7] was over 512 µM. It also gave an MBEC90 [7] of over 512 µM, an MBIC50 [7] of 64 µM and an MBIC90 [7] of 128 µM. It also gave an MIC (MRSA; pH 6) of 256 µM (≈ 326 µg/mL), an MIC (MRSA; pH 7) of 128 µM (≈ 163 µg/mL) and an MIC (MRSA; pH 8) of 64 µM (≈ 81.5 µg/mL). The MIC (S. aureus; pH 6) was 64 µM (≈ 81.5 µg/mL), the MIC (S. aureus; pH 7) was 32 µM (≈ 40.8 µg/mL) and the MIC (S. aureus; pH 8) was 32 µM (≈ 40.8 µg/mL). The MIC (E. faecalis; pH 6) was 256 µM (≈ 326 µg/mL), the MIC (E. faecalis; pH 7) was 128 µM (≈ 163 µg/mL) and the MIC (E. faecalis; pH 8) was 128 µM (≈ 163 µg/mL). The MIC (C. albicans; pH 6) was 64 µM (≈ 81.5 µg/mL), the MIC (C. albicans; pH 7) was 32 µM (≈ 40.8 µg/mL) and the MIC (C. albicans; pH 8) was 32 µM (≈ 40.8 µg/mL).

`CC(C)C[C@H](NC(=O)[C@H](C)NC(=O)[C@H](Cc1c[nH]c2ccccc12)NC(=O)[C@H](CCCCN)NC(=O)[C@H](CC(C)C)NC(=O)[C@@H](N)Cc1ccccc1)C(=O)N[C@@H](CCCCN)C(=O)N[C@@H](Cc1c[nH]c2ccccc12)C(=O)N[C@@H](C)C(=O)N[C@@H](C)C(=O)N[C@@H](CCCCN)C(N)=O` [OSe] (H-FLKWALKWAAK-NH2) showed an MBC [1] of 4 µM (≈ 5.44 µg/mL), an MIC [1] of 4 µM (≈ 5.44 µg/mL) and an MBC [2] of 16 µM (≈ 21.8 µg/mL). The MIC [2] was 16 µM (≈ 21.8 µg/mL), the MBC [3] was 16 µM (≈ 21.8 µg/mL) and the MIC [3] was 16 µM (≈ 21.8 µg/mL). It also gave an MBC [4] of 8 µM (≈ 10.9 µg/mL), an MIC [4] of 8 µM (≈ 10.9 µg/mL) and an MBC [5] of 4 µM (≈ 5.44 µg/mL). For the same molecule, the MIC [5] was 4 µM (≈ 5.44 µg/mL), the MBEC50 [6] was 128 µM and the MBEC90 [6] was 128 µM. The MBIC50 [6] was 64 µM, the MBIC90 [6] was 64 µM and the MBEC50 [7] was over 512 µM. It also gave an MBEC90 [7] of over 512 µM, an MBIC50 [7] of 16 µM and an MBIC90 [7] of 32 µM. The MIC (MRSA; pH 6) was 64 µM (≈ 87.1 µg/mL), the MIC (MRSA; pH 7) was 16 µM (≈ 21.8 µg/mL) and the MIC (MRSA; pH 8) was 8 µM (≈ 10.9 µg/mL). For the same molecule, the MIC (S. aureus; pH 6) was 16 µM (≈ 21.8 µg/mL), the MIC (S. aureus; pH 7) was 8 µM (≈ 10.9 µg/mL) and the MIC (S. aureus; pH 8) was 4 µM (≈ 5.44 µg/mL). It also gave an MIC (E. faecalis; pH 6) of 32 µM (≈ 43.5 µg/mL), an MIC (E. faecalis; pH 7) of 64 µM (≈ 87.1 µg/mL) and an MIC (E. faecalis; pH 8) of 32 µM (≈ 43.5 µg/mL). It also gave an MIC (C. albicans; pH 6) of 16 µM (≈ 21.8 µg/mL), an MIC (C. albicans; pH 7) of 8 µM (≈ 10.9 µg/mL) and an MIC (C. albicans; pH 8) of 4 µM (≈ 5.44 µg/mL).

In the case of `CC(C)C[C@H](NC(=O)[C@H](C)NC(=O)[C@H](Cc1c[nH]c2ccccc12)NC(=O)[C@H](CCCCN)NC(=O)[C@@H]1CCCN1C(=O)[C@H](CC(C)C)NC(=O)[C@@H](N)Cc1ccccc1)C(=O)N[C@@H](CCCCN)C(=O)N[C@@H](Cc1c[nH]c2ccccc12)C(=O)N[C@@H](C)C(=O)N[C@@H](C)C(=O)N[C@@H](CCCCN)C(N)=O` [OSf] (H-FLPKWALKWAAK-NH2; N-terminus assumed), the MBC [1] is reported as 16 µM (≈ 23.3 µg/mL), the MIC [1] is reported as 8 µM (≈ 11.7 µg/mL) and the MBC [2] is reported as 64 µM (≈ 93.3 µg/mL). For the same molecule, the MIC [2] was 32 µM (≈ 46.7 µg/mL), the MBC [3] was 16 µM (≈ 23.3 µg/mL) and the MIC [3] was 8 µM (≈ 11.7 µg/mL). For the same molecule, the MBC [4] was 64 µM (≈ 93.3 µg/mL), the MIC [4] was 16 µM (≈ 23.3 µg/mL) and the MBC [5] was 16 µM (≈ 23.3 µg/mL). For the same molecule, the MIC [5] was 8 µM (≈ 11.7 µg/mL), the MBEC50 [6] was 128 µM and the MBEC90 [6] was 256 µM. It also gave an MBIC50 [6] of 32 µM, an MBIC90 [6] of 64 µM and an MBEC50 [7] of over 512 µM. For the same molecule, the MBEC90 [7] was over 512 µM, the MBIC50 [7] was 32 µM and the MBIC90 [7] was 128 µM. It also gave an MIC (MRSA; pH 6) of 512 µM (≈ 746 µg/mL), an MIC (MRSA; pH 7) of 16 µM (≈ 23.3 µg/mL) and an MIC (MRSA; pH 8) of 32 µM (≈ 46.7 µg/mL). For the same molecule, the MIC (S. aureus; pH 6) was 128 µM (≈ 187 µg/mL), the MIC (S. aureus; pH 7) was 8 µM (≈ 11.7 µg/mL) and the MIC (S. aureus; pH 8) was 16 µM (≈ 23.3 µg/mL). For the same molecule, the MIC (E. faecalis; pH 6) was 512 µM (≈ 746 µg/mL), the MIC (E. faecalis; pH 7) was 32 µM (≈ 46.7 µg/mL) and the MIC (E. faecalis; pH 8) was 128 µM (≈ 187 µg/mL). The MIC (C. albicans; pH 6) was 128 µM (≈ 187 µg/mL), the MIC (C. albicans; pH 7) was 8 µM (≈ 11.7 µg/mL) and the MIC (C. albicans; pH 8) was 16 µM (≈ 23.3 µg/mL).
